Source: US20030129193A1 (priority 2001, published 2003)

Key:
F9 sarcoma = assay: Sarcoma mouse model, tumor necrosis; assay type: in vivo, balb/c nude mice; conditions: endotoxin-free tTF, 4 μg
Protocol: 1×10^7 F9 sarcoma cells were injected subcutaneously into the right flank of balb/c nude mice. Subcutanous tumors were measured with a caliper in three perpendicular directions a, b, and c, and volumes calculated according to the formula V=π/6×a×b×c. Treatment was initiated when subcutaneous tumors reached a size of 150 to 300 μl.
Reagents were administered into the lateral tail vein.
Mice were closely observed after treatment for clinical signs of toxicity and clinical status was documented at defined time points. Three days after treatment, mice were sacrificed and tumors were harvested. Paraffin embedded tissues were stained with hematoxilin and eosin (H&E). Tissue sections were analyzed on a light microscope by two independent investigators and histological findings were documented. Tumor sections with necrotic areas were scanned with a GS-700 imaging densitometer (Biorad, Hercules, Calif.) and areas of necrosis were calculated as % of total section area.

[1] = system: C1300 mouse neuroblastoma; assay: In vivo tumor thrombosis, C1300; design: species or system BALB/c nu/nu mice; conditions: large C1300 tumors (>1000 mm^3), 24 hours after injection
Text: (§1) Tumor test systems were of four types: i) 3LL mouse lung carcinoma growing subcutaneously in C57BL/6 mice; ii) C1300 mouse neuroblastoma growing subcutaneously in BALB/c nu/nu mice; iii) HT29 human colorectal carcinoma growing subcutaneously in BALB/c nu/nu mice; and iv) C1300 Muγ mouse neuroblastoma growing subcutaneously in BALB/c nu/nu mice. The C1300 Muγ tumor is an interferon-γ secreting transfectant derived from the C 1300 tumor (Watanabe et al., 1989).
(§2) To establish tumors, 10^6 to 1.5×10^7 tumor cells were injected subcutaneously into the right anterior flank of the mice. When tumors had grown to various sizes, mice were randomly assigned to different study groups. […] Fab′, or bispecific antibody. Other mice received equivalent quantities IgG, Fab′ or bispecific antibody alone. The injections were performed slowly into one of the tail veins over approximately 45 seconds, usually followed by 200 μl of saline.
(§3) Twenty-four hours after being injected with tTF or immunoglobulin-tTF conjugates, the mice were anesthetized with metophane and were exsanguinated by perfusion with heparinized saline. Tumors and normal tissues were excised and immediately fixed in 3% (v/v) formalin. Paraffin sections were cut and stained with hematoxylin and eosin. Blood vessels having open lumens containing erythrocytes and blood vessels containing thrombi were counted. […]

[2] = system: L540 human Hodgkin's tumors; assay: Anti-VCAM-1•tTF coaguligand, L540; assay type: in vivo, SCID mice
Protocol: Mice bearing subcutaneous L540 tumors were injected intravenously with anti-VCAM-1 antibody and, two hours later, the mice were exsanguinated. The tumor and normal organs were removed and frozen sections were prepared and examined immunohistochemically to determine the location of the antibody. […] No localization of anti-VCAM-1 antibody was found in testis or any normal organ except heart and lung.
Before coaguligand injection, tumors were viable, having a uniform morphology lacking regions of necrosis. […] Within four hours of coaguligand injection, 40-70% of blood vessels were thrombosed, despite the initial staining of only 20-30% of tumor blood vessels. The thrombosed vessels contained occlusive platelet aggregates, packed erythrocytes and fibrin. In several regions, the blood vessels had ruptured, spilling erythrocytes into the tumor interstitium.
The drug was administered i.v. 3 times at intervals of 4 days.

[3] = system: 2F2B mouse endothelial cells; assay: Binding of tTF to endothelial cells (FACS, cell bound coagulation assay); assay type: cell-based
Protocol: Cells were washed and coagulation factor mix (as described above) was added. S2765 substrate was added and Factor Xa generation was measured as described above.
Fluorescent cells were detected on a flow cytometer (Becton Dickinson, San Jose, Calif.).

[4] = Clinical signs of toxicity and histology of normal organs; assay type: in vivo, SCID mice; conditions: for Symptoms: tTF alone
Protocol: Mice were closely observed after treatment for clinical signs of toxicity and clinical status was documented at defined time points (5 minutes, 10 minutes, 15 minutes, 30 minutes, 1 hour, 2 hours, 24 hours, 48 hours, 72 hours). Blood samples were taken from the tail vein at 1 hour, 2 hours and 24 hours to measure TNFα blood levels. Three days after treatment, the mice were anesthetized, blood samples were taken from the vena cava for coagulation tests, and an autopsy was performed to document any changes in gross pathology. Tumors, lymph node metastases and the major normal organs (heart, lung, brain, liver, kidney, colon, spleen, pancreas) were harvested and prepared for histological analysis.
Tissue samples harvested at the time of autopsy were fixed in 3% NBF (normal buffered formalin) and embedded in paraffin wax. Tissue blocs were cut, dewaxed and stained with hematoxilin and eosin (H&E). Tissue sections were analyzed on a light microscope by two independent investigators and histological findings were documented. Tumor sections with necrotic areas were scanned with a GS-700 imaging densitometer (Biorad, Hercules, Calif.) and areas of necrosis were calculated as % of total section area. Statistical Analysis was performed using SPSS software (SPSS Science Software, Erkrath, Germany) applying the Mann-Whitney-U-test for ungrouped data.

3LL mouse lung carcinoma = assay: In vivo tumor thrombosis, 3LL; design: species or system C57BL/6 mice; conditions: large (>800 mm^3) 3LL tumors
Text: as §1, §2, §3

Substance: tTF: extracellular domain of the mature Tissue Factor protein (amino acid 1-219)
- average tumor tissue necrosis (F9 sarcoma): 45%
- thrombosis of tumor vessels [1]: virtually all vessels were thrombosed
- effect on tumor growth ([2]; 0.3-0.4 cm^3 tumors, i.v. 3 times at intervals of 4 days): did not affect tumor growth
- control reagents that caused thrombosis of tumor vessels ([2]; equivalent quantities): None
- binding to endothelial cells expressing tissue factor [3]: no binding of tTF to endothelial cells
- histological findings in normal organs ([4]; light microscopy, three days after treatment): No histological abnormalities
- Symptoms ([4]; listed as TTF): None
- Symptoms ([4]; listed as endotoxin-free tTF): no clinical signs of toxicity
- tumor vessels thrombosed, average (3LL mouse lung carcinoma): 62%
